# Experimental data published in article PMC12070378 (Microbial Biotechnology, 2025).
# Biological target: T1, Sortase A (SrtA) (Staphylococcus aureus, UniProt Q2FV99)
# T1 sequence (Q2FV99 60-206): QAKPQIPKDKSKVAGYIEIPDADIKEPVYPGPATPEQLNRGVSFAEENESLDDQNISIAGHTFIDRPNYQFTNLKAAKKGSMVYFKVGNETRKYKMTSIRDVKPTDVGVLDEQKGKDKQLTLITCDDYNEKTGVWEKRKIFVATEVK
# Experiment: FRET cleavage assay of Abz-LPATG-Dap
# Format: biochemical
compound,measurement,value
"CC(=O)/C=C/c1ccc(O)c(O)c1 [OSC, osmundacetone]",IC50,7.24 µM
